Experimental data reported in patent US12071404B2, “Aza (indole)-, benzothiophene-, and benzofuran-3-sulfonamides” (UCB Pharma GmbH, priority 2016, dated 2024).

Target: GPR17 (Homo sapiens, UniProt Q13304)
Experiment: Calcium mobilization functional assay (GPR17 Ca2+ assay)
Assay type: cell-based
Set-up: host or cells: Flp-In T-REx CHO
Conditions: CHO hGPR17 cells, inhibition of 50 nM MDL29,951, Calcium 5 dye, FLIPR; read-out: Ca2+ assay pIC50 (converted)
Description: Flp-In T-REx CHO cells stably expressing human GPR17 receptor (CHO hGPR17) from Evi Kostenis' lab (Bonn University, Germany) were cultured at 37° C. in a humidified atmosphere of 5% CO2. Cells were grown in DMEM with Nutrient Mixture F-12 supplemented with hygromycin B (500 μg/mL) and blasticidin (30 μg/mL). Expression from the Flp-In locus was induced by treatment with doxycycline (1 μg/mL) for 16-20 h prior assays.
GPR17 is a G-protein coupled receptor. GPR17 activation triggers Gq-type G-protein signaling resulting in endoplasmic reticulum calcium (Ca^2+) stores release in cytosol which can be measured using Calcium 5 dye, a fluorescent indicator dye of cytosolic Ca^2+ levels. All Examples were tested in GPR17 Ca^2+ assay to determine (screen) their GPR17 modulating activity.
CHO hGPR17 were defrosted and seeded at a density of 20,000 cells per well into black 384-well plates with clear bottom. Cells were incubated overnight at 37° C. in a humidified atmosphere of 5% CO2. Sixteen to twenty hours after seeding, CHO hGPR17 were loaded for 60 min with Calcium 5 dye, a cytosolic Ca^2+ indicator fluorescent dye, according to manufacturer's instructions. Fluorescent signal relative to cytosolic Ca^2+ concentration was recorded over time at room temperature in FLIPR Tetra reader. […] Then, 50 nM MDL29,951, a GPR17 agonist, was added to the cells. Inhibitory effects of varying concentrations test compounds were measured and resulting plC50s were determined. […] Analysis and curve fitting were performed in ActivityBase XE using XLfit 4-parameter logistic equation y=A+((B−A)/(1+((C/x)^D))) where A, B, C and D stand for minimum y, maximum y, IC50 and slope, respectively.
The activities of the Example compounds tested are depicted in the table in Section B2B below. The activity ranges A, B and C refer to plC50 values in the Ca^2+ assay as follows: “A”: plC50<7.5, “B”: plC50 7.5<x≤ 8.5, “C”: plC50>8.5

GPR17, sequence (Q13304 whole entry): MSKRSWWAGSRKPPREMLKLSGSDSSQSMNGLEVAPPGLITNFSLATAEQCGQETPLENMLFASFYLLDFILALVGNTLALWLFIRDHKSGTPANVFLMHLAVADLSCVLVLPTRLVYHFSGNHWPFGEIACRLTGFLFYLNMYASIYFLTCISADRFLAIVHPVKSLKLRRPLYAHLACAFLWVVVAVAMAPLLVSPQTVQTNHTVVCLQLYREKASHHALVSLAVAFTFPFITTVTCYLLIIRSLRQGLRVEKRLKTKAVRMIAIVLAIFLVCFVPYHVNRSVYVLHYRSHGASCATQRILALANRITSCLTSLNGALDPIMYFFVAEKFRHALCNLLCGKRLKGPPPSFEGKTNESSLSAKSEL

Row | IC50 [nM] | Structure (SMILES)
1 | > 31.6 | Cc1cc2c(S(=O)(=O)Nc3cccc4c3OCO4)c[nH]c2cc1Br [Compound I-35, N-(1,3-benzodioxol-4-yl)-6-bromo-5-methyl-1H-indole-3-sulfonamide]
2 | > 31.6 | N#Cc1ccc(NS(=O)(=O)c2c[nH]c3ccc(Cl)cc23)cc1 [Compound I-17, 5-chloro-N-(4-cyanophenyl)-1H-indole-3-sulfonamide]
3 | < 3.16 | N#Cc1cc(F)c(NS(=O)(=O)c2c[nH]c3cc(F)ccc23)cc1F [Compound I-165, N-(4-cyano-2,5-difluorophenyl)-6-fluoro-1H-indole-3-sulfonamide]
4 | > 31.6 | O=S(=O)(Nc1ccc(Br)c2c1OC(F)(F)O2)c1c[nH]c2cc(Cl)ccc12 [Compound I-130, N-(7-bromo-2,2-difluoro-1,3-benzodioxol-4-yl)-6-chloro-1H-indole-3-sulfonamide]
5 | 3.16 to 31.6 | N#Cc1ccc(NS(=O)(=O)c2c[nH]c3cc(F)cc(F)c23)c(F)c1 [Compound I-168, N-(4-cyano-2-fluorophenyl)-4,6-difluoro-1H-indole-3-sulfonamide]
6 | > 31.6 | O=S(=O)(Nc1ccc(I)cc1F)c1c[nH]c2cc(C(F)(F)F)ccc12 [Compound I-42, N-(2-fluoro-4-iodophenyl)-6-(trifluoromethyl)-1H-indole-3-sulfonamide]
7 | > 31.6 | N#Cc1ccc(NS(=O)(=O)c2c[nH]c3cc(F)c(F)cc23)cc1 [Compound I-120, N-(4-cyanophenyl)-5,6-difluoro-1H-indole-3-sulfonamide]
8 | > 31.6 | N#Cc1ccc(NS(=O)(=O)c2c[nH]c3ccc(Br)cc23)cc1 [Compound I-13, 5-bromo-N-(4-cyanophenyl)-1H-indole-3-sulfonamide]
9 | > 31.6 | O=S(=O)(Nc1ccc(F)cc1F)c1c[nH]c2ncc(I)cc12 [Compound I-82, N-(2,4-difluorophenyl)-5-iodo-1H-pyrrolo[2,3-b]pyridine-3-sulfonamide]
10 | 3.16 to 31.6 | Cc1cc2c(S(=O)(=O)Nc3ccc(C#N)cc3)c[nH]c2cc1Br [Compound I-18, 6-bromo-N-(4-cyanophenyl)-5-methyl-1H-indole-3-sulfonamide]

Continued, molecule first:

Row | Structure (SMILES) | IC50 [nM]
11 | O=S(=O)(Nc1ccc2n[se]nc2c1)c1c[nH]c2cc(Cl)ccc12 [Compound I-161, N-(2,1,3-benzoselenadiazol-5-yl)-6-chloro-1H-indole-3-sulfonamide] | 3.16 to 31.6
12 | O=S(=O)(Nc1ccc2ncsc2c1)c1c[nH]c2cc(Cl)ccc12 [Compound I-3, N-(1,3-benzothiazol-6-yl)-6-chloro-1H-indole-3-sulfonamide] | > 31.6
13 | O=S(=O)(Nc1cccc2nsnc12)c1c[nH]c2c(Br)cccc12 [Compound I-111, N-(2,1,3-benzothiadiazol-4-yl)-7-bromo-1H-indole-3-sulfonamide] | > 31.6
14 | CS(=O)(=O)c1ccc2c(S(=O)(=O)Nc3ccc4c(c3)OC(F)(F)O4)c[nH]c2c1 [Compound I-36, N-(2,2-difluoro-1,3-benzodioxol-5-yl)-6-(methylsulfonyl)-1H-indole-3-sulfonamide] | > 31.6
15 | O=S(=O)(Nc1cccc2nsnc12)c1c[nH]c2cc(OCc3ccccc3)ccc12 [Compound I-156, N-(2,1,3-benzothiadiazol-4-yl)-6-(benzyloxy)-1H-indole-3-sulfonamide] | > 31.6
16 | N#Cc1ccc(NS(=O)(=O)c2c[nH]c3cc(OCC4CCCO4)ccc23)c(F)c1 (stereo not drawn) [Compound I-222, N-(4-cyano-2-fluorophenyl)-6-(tetrahydrofuran-2-ylmethoxy)-1H-indole-3-sulfonamide] | > 31.6
17 | N#Cc1ccc(NS(=O)(=O)c2c[nH]c3cc4c(cc23)OCO4)cc1 [Compound I-19, N-(4-cyanophenyl)-5H-[1,3]dioxolo[4,5-f]indole-7-sulfonamide] | > 31.6
18 | O=S(=O)(Nc1ccc(Cl)cc1F)c1c[nH]c2c1ccc1ccccc12 [Compound I-45, N-(4-chloro-2-fluorophenyl)-1H-benzo[g]indole-3-sulfonamide] | > 31.6
